The numbers were not newly measured in patent US20260108515A1, “A RAPIDLY DISINTEGRATING TABLET OF ROSUVASTATIN AND ITS PROCESS OF PREPARATION” (NOVUMGEN LIMITED, priority 2022, published 2026), which cites them from elsewhere.

Molecules are shown by their SMILES.

The conditions of series [1]: high permeability and low solubility.
For series [2] the following is noted: in vivo.
In series [3] the test system is high-density lipoprotein—Cholesterol. The following applies: patients with raised triglyceride levels.
The next series concerns the target CYP3A4 (Homo sapiens, UniProt P08684).

Sequence of CYP3A4 (P08684 whole entry): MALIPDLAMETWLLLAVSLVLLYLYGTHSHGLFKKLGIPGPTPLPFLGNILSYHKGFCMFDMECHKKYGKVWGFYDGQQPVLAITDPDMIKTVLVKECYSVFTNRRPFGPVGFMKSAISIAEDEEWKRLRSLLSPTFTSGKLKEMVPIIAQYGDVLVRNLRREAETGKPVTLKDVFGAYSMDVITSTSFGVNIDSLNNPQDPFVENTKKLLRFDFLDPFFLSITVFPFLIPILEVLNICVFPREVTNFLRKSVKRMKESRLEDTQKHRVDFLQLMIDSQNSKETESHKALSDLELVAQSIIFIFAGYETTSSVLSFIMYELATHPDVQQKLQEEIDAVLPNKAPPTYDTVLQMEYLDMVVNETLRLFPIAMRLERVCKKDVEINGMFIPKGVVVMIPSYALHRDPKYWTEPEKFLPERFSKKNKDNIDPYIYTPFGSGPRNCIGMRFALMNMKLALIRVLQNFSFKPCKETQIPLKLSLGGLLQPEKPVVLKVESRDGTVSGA

On to `CC(C)c1nc(N(C)S(C)(=O)=O)nc(-c2ccc(F)cc2)c1/C=C/[C@@H](O)C[C@@H](O)CC(=O)O` [Rosuvastatin, (E,3R,5S)-7-[4-(4-fluorophenyl)-2-[methyl(methylsulfonyl)amino]-6-propan-2-ylpyrimidin-5-yl]-3,5-dihydroxyhept-6-enoic acid], for which the “biopharmaceutics classification system (BCS) class” value in series [1] is on record as “class II”. In series [2], the plasma half-life was 18 to 24 h. Besides, the “raises high-density lipoprotein—Cholesterol” value in series [3] is reported as 15-20%. Also, the metabolizing isoenzyme entry on CYP3A4 is “metabolized primarily by CYP3A4”.
